* marks the point of attachment. MCA = fluorescent 7-methoxycoumarin-3-carboxylic acid residue, COc1ccc2cc(C(=O)*)c(=O)oc2c1; Dpn = quencher lysine-dinitrophenol residue
Legend:
MMP-2 [1] = target: T1, MMP-2 (Homo sapiens, UniProt P08253); assay: MMP-2 cleavage of FRET-based N-terminal 8 amino acid peptides; assay type: biochemical; conditions: for amount of peptide cleaved by MMP-2: after 4 hours, n=4; for initial cleavage rate by MMP-2: calculated 60 minutes after addition of MMP-2, n=4
T1 construct: purchased R&D Systems
T1 sequence (P08253 110-660): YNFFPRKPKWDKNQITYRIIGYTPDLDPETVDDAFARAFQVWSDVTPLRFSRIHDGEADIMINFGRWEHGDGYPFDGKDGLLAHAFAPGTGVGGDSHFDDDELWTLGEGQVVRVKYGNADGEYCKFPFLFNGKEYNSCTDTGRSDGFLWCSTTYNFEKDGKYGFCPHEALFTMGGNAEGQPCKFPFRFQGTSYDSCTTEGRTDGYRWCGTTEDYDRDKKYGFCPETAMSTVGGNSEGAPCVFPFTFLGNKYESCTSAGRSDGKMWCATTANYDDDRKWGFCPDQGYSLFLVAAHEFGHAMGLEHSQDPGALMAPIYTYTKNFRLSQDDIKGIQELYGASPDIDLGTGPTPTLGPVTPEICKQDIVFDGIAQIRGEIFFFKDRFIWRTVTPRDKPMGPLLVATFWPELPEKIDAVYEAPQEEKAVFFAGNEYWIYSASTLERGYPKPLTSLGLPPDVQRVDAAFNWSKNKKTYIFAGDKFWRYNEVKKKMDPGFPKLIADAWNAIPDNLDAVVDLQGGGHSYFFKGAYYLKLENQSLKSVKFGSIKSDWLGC
Protocol: All peptides were synthesized with a fluorescent 7-methoxycoumarin-3-carboxylic acid (MCA) residue at the N-terminus and a quencher lysine-dinitrophenol (Dpn) residue at the C-terminus. […] Enzymatic cleavage of these peptides separated MCA from Dpn, resulting in an increased fluorescence. Peptides (10 μM) were then incubated with activated MMP-2 (Table 1), leukocyte elastase (Table 2), or cathepsin G (Table 3) (1.4 nM) in TNCB buffer (50 mM Tris, pH 7.5, with 10 mM calcium chloride, 150 mM sodium chloride, and 0.05% BRIJ 35) or phosphate-buffered saline (PBS) at 21° C. Fluorescence was measured at 340 nm excitation and 405 nm emission wavelengths at different time points with a Victor Wallace II plate reader.
(§1) Human recombinant MMP-2 (R&D Systems) was activated for 1 hour with 4-aminophenylmercuric acetate (APMA, 1 mM) at 37° C. 4 μg of Sumo-SSDF-1-RAD or Sumo-SSDF-1(S4V)-RAD was incubated for 1 hour to 48 hours at 21° C. with 50 ng of activated MMP-2 in TCNB buffer (50 mM Tris, pH 7.5, 10 mM CaCl2, 150 mM NaCl, 0.05% Brij-35). Sample loading buffer (Invitrogen) and 2-mercaptoethanol (0.5 M, final concentration) were added, and samples were boiled for 5 minutes and run on a 10% Bis-Tris gel. Proteins used for this experiment were obtained after cation-exchange chromatography, but were neither cleaved by Sumo-protease nor purified by RPC-HPLC.

MMP-2 [2] = target: T1, MMP-2; assay: MMP-2 cleavage of Sumo fusion proteins, SDS-PAGE; assay type: biochemical
Protocol: as §1

[3] = system: Jurkat T-lymphocytic cells; assay: Jurkat T-lymphocyte migration (chemotaxis) assay; assay type: cell-based; conditions: for EC50: Jurkat cells, 3 hours migration
Protocol: Jurkat cells were labeled with Calcein-AM (1 μM) for 60 minutes at 37° C., washed twice and resuspended in RPMI without phenol red to a final density of 4,000,000 cells/ml. […] Cells were allowed to migrate for 3 hours, and cells in lower wells were washed once with PBS. Fluorescence in lower wells was measured at 485 nm excitation and 535 nm emission wavelengths with a Victor Wallace II plate reader. A standard curve was constructed for each experiment to normalize fluorescence to the number of cells.

[4] = system: ischemic hindlimb blood flow; assay: Hindlimb ischemia model, laser Doppler blood flow; assay type: in vivo, C57BL/6 mice; conditions: without nanofibers
Protocol: All animal protocols were approved by the institutional IACUC and performed in an AAALAC certified facility. Studies were performed blinded and randomized. Hindlimb ischemia was produced in male C57BL/6 mice (305 mice total), 8 to 12 weeks old (Jackson Laboratories and Charles River Laboratories). Mice were anesthetized with isoflurane (2-3% in 100% oxygen) and buprenorphin (0.05 mg/kg). Femoral artery was ligated and excised below the inguinal ligament and above the bifurcation of the popliteal artery. Protein and self-assembling peptide nanofibers were injected in the lower hindlimb after excision of the artery. Peptides were dissolved in isotonic sucrose (10%). Post-operative analgesia was provided with buprenorphin (0.05 mg/kg every 6 to 12 hours for 72 hours). The surgeon was blinded to the treatment groups in all studies performed. The first study included 35 animals total (5 animals per group), which received an intramuscular injection in the lower hindlimb with biotin-labeled nanofibers (biotin-RAD, 0.01% in 1% nanofibers hydrogel). Tissues were harvested at seven different time points and nanofibers were stained with Alexa fluor-labeled streptavidin. The second study included 40 animals (10 per group) with four groups: control without injection, nanofibers only, nanofibers+100 nM SSDF-1-RAD, and nanofibers+100 nM SSDF-1(S4V)-RAD. Laser Doppler blood flow measurements were performed with a Moor LDI2-IR (Moor Instruments) 2, 4, and 6 weeks after surgery. At each time point, five measurements (on average) per animal were made, and blood flow in the ischemic limb was normalized to blood flow in normal limb. The third study included 50 animals with four different dosages of SSDF-1(S4V)-RAD; all groups contained nanofibers. All laser Doppler measurements and histology quantifications were made by an operator blinded to the treatment groups.

CXCR7 = CXCR7 (Homo sapiens, UniProt P25106); assay: CXCR7 β-arrestin recruitment assay (PathHunter); assay type: cell-based
Protocol: (§2) PathHunter β-arrestin assays were performed following the instructions of the manufacturer (DiscoveRx). Briefly, PathHunter cell lines stably expressing both a β-arrestin-Enzyme Acceptor of β-galactosidase fusion and one of the chemokine receptors fused with the ProLink donor peptide of […] were employed. Upon CXCR stimulation, β-arrestin is recruited to the receptor for desensitization, bringing the two fragments (the Enzyme Acceptor and the ProLink) of β-galactosidase together. This generates an active β-galactosidase enzyme that can convert a substrate to a chemiluminescent product. Cells were seeded at a density of 5000 cells/well in a 384-well plate and were allowed to adhere overnight. […] After incubation, chemiluminescent signal was generated through addition of 12.5 μl (50% v/v) of PathHunter Detection reagent cocktail (DiscoveRx) followed by a 1-hour incubation at room temperature. Microplates were read with a PerkinElmer ViewLux instrument.

CXCR4 [5] = target: T2, CXCR4 (Homo sapiens, UniProt P61073); assay: CXCR4 cAMP receptor activation assay (CHO-K1 cells expressing CXCR4); assay type: cell-based; design: host or cells: CHO-K1; conditions: decrease in cAMP by Gαi activation, forskolin at EC80
Protocol: For the CXCR4 cAMP assay, CHO-K1 cells stably expressing the CXCR4 receptor (DiscoveRx, Fremont, Calif.) were seeded at a density of 10,000 cells/well in a 384-well plate and were allowed to recover overnight. A decrease in cAMP by CXCR4-induced Gαi activation was determined using the DiscoveRx HitHunter cAMP XS+assay following the manufacturer's protocol. […] Chemiluminescence was read with a PerkinElmer ViewLux instrument.

CXCR4 [6] = target: T2, CXCR4; assay: CXCR4 β-arrestin recruitment assay (PathHunter); assay type: cell-based
Protocol: as §2

[7] = fourth study, 1 mg/kg daily IM for first 7 days
[8] = separate confirming study, same doses and schedule

T2 sequence (P61073 whole entry): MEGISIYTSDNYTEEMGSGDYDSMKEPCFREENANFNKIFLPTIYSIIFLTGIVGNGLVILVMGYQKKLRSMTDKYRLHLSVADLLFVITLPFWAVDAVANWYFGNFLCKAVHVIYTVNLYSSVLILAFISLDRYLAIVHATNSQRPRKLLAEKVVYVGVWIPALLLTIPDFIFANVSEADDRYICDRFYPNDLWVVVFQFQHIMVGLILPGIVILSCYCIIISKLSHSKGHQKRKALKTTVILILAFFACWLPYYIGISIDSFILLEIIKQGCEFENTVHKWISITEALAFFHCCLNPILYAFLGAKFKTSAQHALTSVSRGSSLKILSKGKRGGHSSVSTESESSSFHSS
CXCR7, sequence (P25106 whole entry, the tested form may be a part): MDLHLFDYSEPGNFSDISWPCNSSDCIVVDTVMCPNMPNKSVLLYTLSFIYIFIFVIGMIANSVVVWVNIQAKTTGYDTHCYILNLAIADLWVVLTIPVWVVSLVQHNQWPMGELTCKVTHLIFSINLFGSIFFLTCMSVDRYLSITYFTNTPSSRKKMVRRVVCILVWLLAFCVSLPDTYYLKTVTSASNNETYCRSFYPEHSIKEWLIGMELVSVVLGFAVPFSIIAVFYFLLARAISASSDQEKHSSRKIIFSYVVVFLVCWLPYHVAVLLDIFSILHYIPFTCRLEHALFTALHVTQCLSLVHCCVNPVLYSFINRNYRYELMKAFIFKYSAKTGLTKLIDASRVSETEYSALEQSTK

| Substance | amount of peptide cleaved by MMP-2 (MMP-2 [1]) [pmol] | initial cleavage rate by MMP-2 (MMP-2 [1]) | EC50 [3] [nM] | blood flow differences between groups [4, 7] | blood flow differences between groups [4, 8] | also measured |
| --- | --- | --- | --- | --- | --- | --- |
| KPVSLSYR ({MCA}-KPVSLSYR-Dpn; listed as Homo sapiens) [SDF-1-N-terminal peptide, reference compound] | 205 ± 18 | 2.0±0.1×10^−10 M s^−1 |  |  |  |  |
| SDF-1(S4V)-N-terminal peptide: First 8 amino acids of SDF-1(S4V) (SEQ ID NO:91) with MCA at the N-terminus and quencher Dpn at the C-terminus ({MCA}-KPVVLSYR-Dpn) | 1 ± 3 | 0.1±0.1×10^−10 M s^−1 |  |  |  |  |
| SDF-1(S4V): SDF-1 with Ser→Val at position 4, SEQ ID NO:65 |  |  |  |  |  | rate of cleavage lower than SDF-1 (MMP-2 [2]): at least 48 times |
| SSDF-1 (S4V): SDF-1(S4V) (SEQ ID NO:65) with a serine residue added at the N-terminus |  |  | 5.4 | No significant differences in blood flow | did not show significant differences between groups | activity in Jurkat cell migration assay ([3]; result in words): highest potency; average blood flow (ratio of ischemic to control limb) ([4]; four weeks, 4 administrations (d0, d1, d3, d5) of 1 mg/kg): 27.1±2.5%; blood flow differences between groups ([4]; third study, 0.1, 0.3, 1 and 3 mg/kg at d0, d1, d3, d5): No significant differences in blood flow; EC50 (CXCR7): 37 nM; EC50 (CXCR4 [5]): 20 nM; EC50 (CXCR4 [6]): 28 nM |
| SSDF-1: SDF-1 with a serine residue added at the N-terminus |  |  | 1.6 | No significant differences in blood flow | did not show significant differences between groups |  |
